Reference: patent US20140093884A1, “Process for Identifying Novel Anti-Inflammatory Molecules with Reduced Direct Transrepression of Genes Induced by Glucocorticoids” (UNIVERSITE DE STRASBOURG, priority 2011, published 2014)

Legend:
Type in all cases: in vivo, mouse
Parameters in all cases: key: ♦: not repressed
[1] = system: IR0, IR1 and IR2 nGRE containing genes; assay: Q-RT-PCR of IR nGRE-containing genes in epidermis of 18 hr-Dex-treated WT mice
From the text: (§1) Real time PCR. Total RNA was reverse transcribed using hexamers, followed by Q-PCR, as reported (Li et al., 2005).
(§2) A comparison of mouse and human orthologues indicated conservations of such IR elements (51 IR0, 379 IR1 and 566 IR2). Within these orthologue gene families, 35 IR0, 50 IR1 and 50 IR2 nGRE-containing mouse genes (Table 4) were randomly chosen to investigate whether (i) they were expressed in epidermis, intestinal epithelium and liver, (ii) their expression was inhibited by the GC agonist Dexamethasone (Dex), (iii) this inhibition could be relieved by RU486 co-administration, and also if it could be correlated with GR and corepressor binding to their putative IR nGREs.

[2] = system: IR0, IR1 and IR2 nGRE containing genes; assay: Q-RT-PCR of IR nGRE-containing genes in intestinal epithelium of 18 hr-Dex-treated WT mice
From the text: as §1, §2

[3] = system: IR0, IR1 and IR2 nGRE containing genes; assay: Q-RT-PCR of IR nGRE-containing genes in liver of 18 hr-Dex-treated WT mice
From the text: as §1, §2

C[C@@H]1C[C@H]2[C@@H]3CCC4=CC(=O)C=C[C@]4(C)[C@@]3(F)[C@@H](O)C[C@]2(C)[C@@]1(O)C(=O)CO [Dex, dexamethasone]
♦: AIP transcript level, not repressed ([1]; IR0 nGRE gene) | DDI1 transcript level, not repressed ([1]; IR0 nGRE gene) | DLAT transcript level, not repressed ([1]; IR0 nGRE gene) | FBXL18 transcript level, not repressed ([1]; IR0 nGRE gene) | FSD2 transcript level, not repressed ([1]; IR0 nGRE gene) | GPIHBP1 transcript level, not repressed ([1]; IR0 nGRE gene) | HCST transcript level, not repressed ([1]; IR0 nGRE gene) | KLF5 transcript level, not repressed ([1]; IR0 nGRE gene) | LAG3 transcript level, not repressed ([1]; IR0 nGRE gene) | MTG1 transcript level, not repressed ([1]; IR0 nGRE gene) | NEU1 transcript level, not repressed ([1]; IR0 nGRE gene) | PTMS transcript level, not repressed ([1]; IR0 nGRE gene) | SLC25A5 transcript level, not repressed ([1]; IR0 nGRE gene) | TCF25 transcript level, not repressed ([1]; IR0 nGRE gene) | TRPM7 transcript level, not repressed ([1]; IR0 nGRE gene) | ZBED4 transcript level, not repressed ([1]; IR0 nGRE gene) | ZFP113 transcript level, not repressed ([1]; IR0 nGRE gene) | ZFP467 transcript level, not repressed ([1]; IR0 nGRE gene) | ZFP784 transcript level, not repressed ([1]; IR0 nGRE gene) | AGPAT2 transcript level, not repressed ([1]; IR1 nGRE gene) | AKAP6 transcript level, not repressed ([1]; IR1 nGRE gene) | ARHGAP23 transcript level, not repressed ([1]; IR1 nGRE gene) | ATN1 transcript level, not repressed ([1]; IR1 nGRE gene) | B4GALT2 transcript level, not repressed ([1]; IR1 nGRE gene) | BCL2L1 transcript level, not repressed ([1]; IR1 nGRE gene) | BEST2 transcript level, not repressed ([1]; IR1 nGRE gene) | BMP3 transcript level, not repressed ([1]; IR1 nGRE gene) | CACNA2D3 transcript level, not repressed ([1]; IR1 nGRE gene) | CADM4 transcript level, not repressed ([1]; IR1 nGRE gene) | CDK9 transcript level, not repressed ([1]; IR1 nGRE gene) | CTSA transcript level, not repressed ([1]; IR1 nGRE gene) | DYNLT3 transcript level, not repressed ([1]; IR1 nGRE gene) | GNG10 transcript level, not repressed ([1]; IR1 nGRE gene) | GPR108 transcript level, not repressed ([1]; IR1 nGRE gene) | GPR153 transcript level, not repressed ([1]; IR1 nGRE gene) | JUND transcript level, not repressed ([1]; IR1 nGRE gene) | KLC3 transcript level, not repressed ([1]; IR1 nGRE gene) | LRRC transcript level, not repressed ([1]; IR1 nGRE gene) | MT2 transcript level, not repressed ([1]; IR1 nGRE gene) | MTHFR transcript level, not repressed ([1]; IR1 nGRE gene) | MXI1 transcript level, not repressed ([1]; IR1 nGRE gene) | NKRF transcript level, not repressed ([1]; IR1 nGRE gene) | SCP2 transcript level, not repressed ([1]; IR1 nGRE gene) | SREPF1 transcript level, not repressed ([1]; IR1 nGRE gene) | SSTR4 transcript level, not repressed ([1]; IR1 nGRE gene) | STAB1 transcript level, not repressed ([1]; IR1 nGRE gene) | USF1 transcript level, not repressed ([1]; IR1 nGRE gene) | COL4A3BP transcript level, not repressed ([1]; IR2 nGRE gene) | ELMOD3 transcript level, not repressed ([1]; IR2 nGRE gene) | FKBP2 transcript level, not repressed ([1]; IR2 nGRE gene) | FOXQ1 transcript level, not repressed ([1]; IR2 nGRE gene) | GGT1 transcript level, not repressed ([1]; IR2 nGRE gene) | GIT2 transcript level, not repressed ([1]; IR2 nGRE gene) | GLU1 transcript level, not repressed ([1]; IR2 nGRE gene) | GOT1 transcript level, not repressed ([1]; IR2 nGRE gene) | GPR97 transcript level, not repressed ([1]; IR2 nGRE gene) | GRASP transcript level, not repressed ([1]; IR2 nGRE gene) | HSPB2 transcript level, not repressed ([1]; IR2 nGRE gene) | POMGNT1 transcript level, not repressed ([1]; IR2 nGRE gene) | PRKRA transcript level, not repressed ([1]; IR2 nGRE gene) | RORA transcript level, not repressed ([1]; IR2 nGRE gene) | SLC2A8 transcript level, not repressed ([1]; IR2 nGRE gene) | TGM6 transcript level, not repressed ([1]; IR2 nGRE gene) | AIP transcript level, not repressed ([2]; IR0 nGRE gene) | ANO4 transcript level, not repressed ([2]; IR0 nGRE gene) | CITED1 transcript level, not repressed ([2]; IR0 nGRE gene) | DLAT transcript level, not repressed ([2]; IR0 nGRE gene) | FBXL18 transcript level, not repressed ([2]; IR0 nGRE gene) | GPIHBP1 transcript level, not repressed ([2]; IR0 nGRE gene) | KLF5 transcript level, not repressed ([2]; IR0 nGRE gene) | LAG3 transcript level, not repressed ([2]; IR0 nGRE gene) | MAPK4 transcript level, not repressed ([2]; IR0 nGRE gene) | MTG1 transcript level, not repressed ([2]; IR0 nGRE gene) | NDUFA4L2 transcript level, not repressed ([2]; IR0 nGRE gene) | NEU1 transcript level, not repressed ([2]; IR0 nGRE gene) | PPIL5 transcript level, not repressed ([2]; IR0 nGRE gene) | PTMS transcript level, not repressed ([2]; IR0 nGRE gene) | SLC25A5 transcript level, not repressed ([2]; IR0 nGRE gene) | SP9 transcript level, not repressed ([2]; IR0 nGRE gene) | SPARC transcript level, not repressed ([2]; IR0 nGRE gene) | TCF25 transcript level, not repressed ([2]; IR0 nGRE gene) | TRPM7 transcript level, not repressed ([2]; IR0 nGRE gene) | ZBED4 transcript level, not repressed ([2]; IR0 nGRE gene) | ZFP113 transcript level, not repressed ([2]; IR0 nGRE gene) | ZFP467 transcript level, not repressed ([2]; IR0 nGRE gene) | ZFP784 transcript level, not repressed ([2]; IR0 nGRE gene) | ADRA2A transcript level, not repressed ([2]; IR1 nGRE gene) | AGPAT2 transcript level, not repressed ([2]; IR1 nGRE gene) | ATN1 transcript level, not repressed ([2]; IR1 nGRE gene) | BCL2L1 transcript level, not repressed ([2]; IR1 nGRE gene) | BMP3 transcript level, not repressed ([2]; IR1 nGRE gene) | CADM4 transcript level, not repressed ([2]; IR1 nGRE gene) | CDH11 transcript level, not repressed ([2]; IR1 nGRE gene) | CDK9 transcript level, not repressed ([2]; IR1 nGRE gene) | CTSA transcript level, not repressed ([2]; IR1 nGRE gene) | DYNLT3 transcript level, not repressed ([2]; IR1 nGRE gene) | GPR108 transcript level, not repressed ([2]; IR1 nGRE gene) | GPR153 transcript level, not repressed ([2]; IR1 nGRE gene) | KLC3 transcript level, not repressed ([2]; IR1 nGRE gene) | LRRC transcript level, not repressed ([2]; IR1 nGRE gene) | MTHFR transcript level, not repressed ([2]; IR1 nGRE gene) | MXI1 transcript level, not repressed ([2]; IR1 nGRE gene) | NKRF transcript level, not repressed ([2]; IR1 nGRE gene) | SCP2 transcript level, not repressed ([2]; IR1 nGRE gene) | SOCS3 transcript level, not repressed ([2]; IR1 nGRE gene) | SREPF1 transcript level, not repressed ([2]; IR1 nGRE gene) | SSTR4 transcript level, not repressed ([2]; IR1 nGRE gene) | STAB1 transcript level, not repressed ([2]; IR1 nGRE gene) | COL4A3BP transcript level, not repressed ([2]; IR2 nGRE gene) | DPAGT1 transcript level, not repressed ([2]; IR2 nGRE gene) | ELMOD3 transcript level, not repressed ([2]; IR2 nGRE gene) | ERP27 transcript level, not repressed ([2]; IR2 nGRE gene) | FSTL1 transcript level, not repressed ([2]; IR2 nGRE gene) | GIT2 transcript level, not repressed ([2]; IR2 nGRE gene) | GLU1 transcript level, not repressed ([2]; IR2 nGRE gene) | GOT1 transcript level, not repressed ([2]; IR2 nGRE gene) | GPR68 transcript level, not repressed ([2]; IR2 nGRE gene) | GUK1 transcript level, not repressed ([2]; IR2 nGRE gene) | HSPB2 transcript level, not repressed ([2]; IR2 nGRE gene) | HSPB3 transcript level, not repressed ([2]; IR2 nGRE gene) | ITPKA transcript level, not repressed ([2]; IR2 nGRE gene) | MUC20 transcript level, not repressed ([2]; IR2 nGRE gene) | PRKRA transcript level, not repressed ([2]; IR2 nGRE gene) | SLC2A8 transcript level, not repressed ([2]; IR2 nGRE gene) | SLC25A34 transcript level, not repressed ([2]; IR2 nGRE gene) | SOCS1 transcript level, not repressed ([2]; IR2 nGRE gene) | TGM6 transcript level, not repressed ([2]; IR2 nGRE gene) | TNFRSF25 transcript level, not repressed ([2]; IR2 nGRE gene) | AIP transcript level, not repressed ([3]; IR0 nGRE gene) | CITED1 transcript level, not repressed ([3]; IR0 nGRE gene) | DLAT transcript level, not repressed ([3]; IR0 nGRE gene) | FBXL18 transcript level, not repressed ([3]; IR0 nGRE gene) | GPIHBP1 transcript level, not repressed ([3]; IR0 nGRE gene) | INHBE transcript level, not repressed ([3]; IR0 nGRE gene) | MTG1 transcript level, not repressed ([3]; IR0 nGRE gene) | NMYC transcript level, not repressed ([3]; IR0 nGRE gene) | PTMS transcript level, not repressed ([3]; IR0 nGRE gene) | TCF25 transcript level, not repressed ([3]; IR0 nGRE gene) | ZBED4 transcript level, not repressed ([3]; IR0 nGRE gene) | ZFP113 transcript level, not repressed ([3]; IR0 nGRE gene) | ZFP784 transcript level, not repressed ([3]; IR0 nGRE gene) | ADRA2A transcript level, not repressed ([3]; IR1 nGRE gene) | AGPAT2 transcript level, not repressed ([3]; IR1 nGRE gene) | BMP3 transcript level, not repressed ([3]; IR1 nGRE gene) | CADM4 transcript level, not repressed ([3]; IR1 nGRE gene) | CDH11 transcript level, not repressed ([3]; IR1 nGRE gene) | CDK9 transcript level, not repressed ([3]; IR1 nGRE gene) | CTSA transcript level, not repressed ([3]; IR1 nGRE gene) | DYNLT3 transcript level, not repressed ([3]; IR1 nGRE gene) | GPR108 transcript level, not repressed ([3]; IR1 nGRE gene) | GPR153 transcript level, not repressed ([3]; IR1 nGRE gene) | HSD11B2 transcript level, not repressed ([3]; IR1 nGRE gene) | KLC3 transcript level, not repressed ([3]; IR1 nGRE gene) | LRRC transcript level, not repressed ([3]; IR1 nGRE gene) | MT2 transcript level, not repressed ([3]; IR1 nGRE gene) | MTHFR transcript level, not repressed ([3]; IR1 nGRE gene) | MXI1 transcript level, not repressed ([3]; IR1 nGRE gene) | SCP2 transcript level, not repressed ([3]; IR1 nGRE gene) | SGK3 transcript level, not repressed ([3]; IR1 nGRE gene) | SREPF1 transcript level, not repressed ([3]; IR1 nGRE gene) | SSTR4 transcript level, not repressed ([3]; IR1 nGRE gene) | STAB1 transcript level, not repressed ([3]; IR1 nGRE gene) | CCR10 transcript level, not repressed ([3]; IR2 nGRE gene) | COL4A3BP transcript level, not repressed ([3]; IR2 nGRE gene) | DPAGT1 transcript level, not repressed ([3]; IR2 nGRE gene) | ELMOD3 transcript level, not repressed ([3]; IR2 nGRE gene) | ERP27 transcript level, not repressed ([3]; IR2 nGRE gene) | FOXJ1 transcript level, not repressed ([3]; IR2 nGRE gene) | FOXQ1 transcript level, not repressed ([3]; IR2 nGRE gene) | GGT1 transcript level, not repressed ([3]; IR2 nGRE gene) | GOT1 transcript level, not repressed ([3]; IR2 nGRE gene) | GPR97 transcript level, not repressed ([3]; IR2 nGRE gene) | GRASP transcript level, not repressed ([3]; IR2 nGRE gene) | HSPB2 transcript level, not repressed ([3]; IR2 nGRE gene) | HSPB3 transcript level, not repressed ([3]; IR2 nGRE gene) | MUC20 transcript level, not repressed ([3]; IR2 nGRE gene) | POMGNT1 transcript level, not repressed ([3]; IR2 nGRE gene) | PRKRA transcript level, not repressed ([3]; IR2 nGRE gene) | SOCS1 transcript level, not repressed ([3]; IR2 nGRE gene) | TNFRSF25 transcript level, not repressed ([3]; IR2 nGRE gene)
